# From patent publication US12612644B2, “Scalable method for recombinant AAV production” (REGENXBIO Inc., priority 2018, dated 2026)
# Experiments:
# [1] = tested on: CHO cells; conditions: cited from earlier work
# [2] = tested on: HEK293 cells expressing AAV8 particles; experiment: Large scale (50 liter) rAAV production using NaCl enhancer (Example 3); type: cell-based, human; conditions: 50 liter culture; NaCl increased by 60 mM 24 hours post transfection
# Description: The effect of NaCl on rAAV yield was tested in 50 liter cultures of HEK293 cells expressing AAV8 particles encapsidating a transgene. HEK suspension cultures were grown using standard processes. Cells were diluted to ˜4×10e6 viable cells. The medium used included 100 mM NaCl. Cells were transfected 24 hours post dilution with a mixture of polyethylenimine and 3 plasmids encoding adeno-virus helper functions, transgene and AAV […]. 24 hours post transfection, sufficient NaCl was added to increase the final NaCl concentration by 60 mM. (i.e., the final NaCl concentration was ˜160 mM). Supernatant was harvested on day 4 post transfection. The processes yielded 1×10e+11 genome copy (GC)/ml and 9×10e+10. This is ˜2-fold higher than the yield of the same process without the increase in NaCl concentration following transfection.
# [3] = tested on: HEK293 cells expressing rAAV9 particles; experiment: Effect of NaCl and/or sodium propionate on rAAV9 yield, microscale bioreactors (Example 5); type: cell-based, human; conditions: effects of other conditions averaged
# Description: The effect of sodium chloride and sodium propionate (NaPr) (ThermoFisher Scientific) on rAAV yield in a suspension culture of HEK293 cells expressing rAAV9 particles encapsidating a transgene. HEK293 cells were seeded at 1×10e6 viable cell/ml density in advanced microscale bioreactors. The medium comprised 100 mM NaCl. At 48 hrs ECD (Elapsed Culture Duration), the cells were transfected with a mixture of polyethylenimine and 3 plasmids encoding adeno-virus helper functions, transgene and AAV 2/9 Rep/Cap. 4, 20, or 36 hours after transfection, NaCl, NaPr, anti-clump, EFC+, and/or Na valproate was added to the cultures. Conditions tested were 0, 30 mM and 60 mM NaCl, 0, 2 mM and 4 mM NaPr. Multiple conditions were tested using a Design of Experiment approach. The supernatant of the cultures was harvested at […], i.e., 5 days post-transfection. rAAV yields were obtained. […] Resulting titer improvement by adding NaCl and/or NaPr is shown in FIG. 3 where the effects of other tested conditions are averaged. […] The observed ˜2-fold increase is higher than what would be expected if the effect of NaPr and increased NaCl were additive.
# [4] = tested on: recombinant IgG production; conditions: alone; small culture conditions less than 50 L; cited from earlier work
compound,measurement,setting,value
CCCC(=O)O [butyric acid],cell growth,[1],inhibited cell growth
same,production of recombinant B-domain deleted factor VIII,[1],enhanced production
"[Cl-].[Na+] [NaCl, sodium chloride]",yield relative to the same process without the increase in NaCl concentration,[2],~2 fold
same,increase in the titer,[3]; increased NaCl in the absence of sodium propionate,~1.2 fold
CCC(=O)O [propionic acid],production of recombinant B-domain deleted factor VIII,[1],enhanced production
CCC(=O)[O-].[Na+] [sodium propionate],increase in the titer,[3]; 2 mM sodium propionate in the absence of increased NaCl,~1.5 fold
same,effect on recombinant IgG production,[4],no strong effect alone
